One may read the IC50 as the point on the concentration scale where inhibition reaches its midpoint. Low readings indicate greater potency in that assay, high ones weaker potency in that assay.

SMILES strings stand for the structures.

Results on 31 compounds are retold here after patent US20240383904A1, “HETEROCYCLIC COMPOUNDS” (Hoffmann-La Roche Inc., priority 2021, published 2024).

The target in this assay is T1, MAGL (Homo sapiens, UniProt Q99685).
T1 sequence (Q99685 1-303): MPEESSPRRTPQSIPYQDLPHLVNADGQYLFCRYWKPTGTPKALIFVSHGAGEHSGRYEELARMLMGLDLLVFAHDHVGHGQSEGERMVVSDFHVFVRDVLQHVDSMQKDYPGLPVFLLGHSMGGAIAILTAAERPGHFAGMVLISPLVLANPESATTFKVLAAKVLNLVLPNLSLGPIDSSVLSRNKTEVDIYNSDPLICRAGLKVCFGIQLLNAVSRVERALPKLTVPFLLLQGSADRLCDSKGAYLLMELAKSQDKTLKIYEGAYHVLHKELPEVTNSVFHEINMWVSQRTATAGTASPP
Description: 2-AG assay: MAGL inhibitory activity by hydrolysis of 2-arachidonoylglycerol to arachidonic acid, followed by mass spectrometry. The class given is biochemical. Conditions: 15 min preincubation, 30 min reaction at RT, 8 μM 2-arachidonoylglycerol.

As for `O=C1NC2(CO1)CN(C(=O)N1CC3(CC(N4CC(C(F)(F)F)C4)C3)C1)C2` [Example 80, 2-[6-[3-(trifluoromethyl)azetidin-1-y1]-2-azaspiro[3.3]heptane-2-carbonyl]-7-oxa-2,5-diazaspiro[3.4]octan-6-one], the concentration for half-maximal inhibition (IC50) worked out at 6.19 nM.

For the compound `O=C1NC2(CO1)CN(C(=O)N1CC3(CC(N4CC(CC(F)(F)F)C4)C3)C1)C2` [Example 81, 2-[6-[3-(2,2,2-trifluoroethyl)azetidin-1-y1]-2-azaspiro[3.3]heptane-2-carbonyl]-7-oxa-2,5-diazaspiro[3.4]octan-6-one], the IC50 amounted to 7.62 nM. As for `O=C1CCC2(CN(C(=O)N3CC4(CCN(Cc5ccc(S(=O)(=O)C(F)(F)F)cc5)CC4)C3)C2)N1` [Example 82, 2-[7-(4-triflylbenzyl)-2,7-diazaspiro[3.5]nonane-2-carbonyl]-2,5-diazaspiro[3.4]octan-6-one], the IC50 was determined as 5.58 nM. In turn, `O=C1COCC2(CN(C(=O)N3CC4(CCN(Cc5ccc(S(=O)(=O)C(F)(F)F)cc5)CC4)C3)C2)N1` [Example 83, 2-[7-(4-triflylbenzyl)-2,7-diazaspiro[3.5]nonane-2-carbonyl]-8-oxa-2,5-diazaspiro[3.5]nonan-6-one] returned an IC50 of 24.2 nM. With `O=C1NC2(CO1)CN(C(=O)N1CC3(CCN(Cc4ccc(S(=O)(=O)C(F)(F)F)cc4)CC3)C1)C2` [Example 84, 2-[7-(4-triflylbenzyl)-2,7-diazaspiro[3.5]nonane-2-carbonyl]-7-oxa-2,5-diazaspiro[3.4]octan-6-one], the midpoint of inhibition, the IC50, lay at 0.99 nM. The same measure for `O=C1NC2(CO1)CN(C(=O)N1CC3(CN(Cc4ccc(S(=O)(=O)C(F)(F)F)cc4)C3)C1)C2` [Example 85, 2-[6-(4-triflylbenzyl)-2,6-diazaspiro[3.3]heptane-2-carbonyl]-7-oxa-2,5-diazaspiro[3.4]octan-6-one]: 0.94 nM; for `O=C1COCC2(CN(C(=O)N3CC4(C3)CN(S(=O)(=O)c3cccc(OC(F)(F)F)c3)C4)C2)N1` [Example 86, 2-[2-[3-(trifluoromethoxy)phenyl]sulfony1-2,6-diazaspiro[3.3]heptane-6-carbonyl]-8-oxa-2,5-diazaspiro[3.5]nonan-6-one]: 984 nM. On to `O=C1COCC2(CN(C(=O)N3CC4(CCC(Cc5ccc(C(F)(F)F)cn5)CC4)C3)C2)N1` [Example 87, 2-[7-[[5-(trifluoromethyl)-2-pyridyl]methyl]-2-azaspiro[3.5]nonane-2-carbonyl]-8-oxa-2,5-diazaspiro[3.5]nonan-6-one], for which half-maximal inhibition (IC50) required 6.42 nM. Next, `O=C1COCC2(CN(C(=O)N3CC4(CCC(OCC5(C(F)(F)F)CC5)CC4)C3)C2)N1` [Example 88, 2-[7-[[1-(trifluoromethyl)cyclopro-pyl]methoxy]-2-azaspiro[3.5]nonane-2-carbonyl]-8-oxa-2,5-diazaspiro[3.5]nonan-6-one]: 13.5 nM.

Turning to `O=C1COCC2(CN(C(=O)N3CC4(CC(CNC5(C(F)(F)F)CC5)C4)C3)C2)N1` [Example 89, 2-[6-[[[1-(trifluoromethyl)cyclopro-pyl]amino]methyl]-2-azaspiro[3.3]heptane-2-carbonyl]-8-oxa-2,5-diazaspiro[3.5]nonan-6-one], half-maximal inhibition (IC50) required 29.7 nM. As to `O=C1CCC2(CN(C(=O)N3CCC4(CC3)CN(Cc3ccc(C(F)(F)F)cc3F)C4)C2)N1` [Example 90, 2-[2-[2-fluoro-4-(trifluoromethyl)benzyl]-2,7-diazaspiro[3.5]nonane-7-carbonyl]-2,5-diazaspiro[3.4]octan-6-one], the IC50 is 19.1 nM.

`O=C1NC2(CCO1)CN(C(=O)N1CCC3(CC1)CN(Cc1ccc(C(F)(F)F)cc1F)C3)C2` [Example 91, 2-[2-[2-fluoro-4-(trifluoromethyl)benzyl]-2,7-diazaspiro[3.5]nonane-7-carbonyl]-7-oxa-2,5-diazaspiro[3.5]nonan-6-one]: the IC50 came out at 635 nM. On to `O=C1NC2(CO1)CN(C(=O)N1CCC3(CC1)CN(Cc1ccc(C(F)(F)F)cc1F)C3)C2` [Example 92, 2-[2-[2-fluoro-4-(trifluoromethyl)benzyl]-2,7-diazaspiro[3.5]nonane-7-carbonyl]-7-oxa-2,5-diazaspiro[3.4]octan-6-one], for which the half-inhibitory concentration (IC50) came out at 0.65 nM.

The compound `O=C1NCC2(CN(C(=O)N3CCC4(CC3)CN(Cc3ccc(C(F)(F)F)cc3F)C4)C2)N1` [Example 93, 2-[2-[2-fluoro-4-(trifluoromethyl)benzyl]-2,7-diazaspiro[3.5]nonane-7-carbonyl]-2,5,7-triazaspiro[3.4]octan-6-one] registered a half-inhibitory concentration (IC50) of 142 nM. Next, `O=C1NC2(CO1)CN(C(=O)N1CC3(CC(NCc4ccc(C(F)(F)F)cc4F)C3)C1)C2` [Example 94]: 1.08 nM; `O=C1NC2(CO1)CN(C(=O)N1CC3(CCC(Nc4ccc(C(F)(F)F)cn4)CC3)C1)C2` [Example 95, 2-[7-[[5-(trifluoromethyl)-2-pyridyl]amino]-2-azaspiro[3.5]nonane-2-carbonyl]-7-oxa-2,5-diazaspiro[3.4]octan-6-one]: 0.37 nM; `CN(c1cnc(C(F)(F)F)cn1)C1CCC2(CC1)CN(C(=O)N1CC3(COC(=O)N3)C1)C2` [Example 96, 2-[7-[methyl-[5-(trifluoromethyl)pyrazin-2-yl]amino]-2-azaspiro[3.5]nonane-2-carbonyl]-7-oxa-2,5-diazaspiro[3.4]octan-6-one]: 1.88 nM.

Compound `O=C1NC2(CO1)CN(C(=O)N1CC3(CCC(Cc4ccc(Cl)cn4)CC3)C1)C2` [Example 97, 2-[7-[(5-chloro-2-pyridyl)methyl]-2-azaspiro[3.5]nonane-2-carbonyl]-7-oxa-2,5-diazaspiro[3.4]octan-6-one] returned an IC50 of 0.15 nM. Take `O=C1NC2(CO1)CN(C(=O)N1CC3(CCC(Nc4cnc(C(F)(F)F)cn4)CC3)C1)C2` [Example 98, 2-[7-[[5-(trifluoromethyl)pyrazin-2-yl]amino]-2-azaspiro[3.5]nonane-2-carbonyl]-7-oxa-2,5-diazaspiro[3.4]octan-6-one]: the IC50 was 1.75 nM. Take `CS(=O)(=O)c1cc(F)ccc1OC1CCC2(CC1)CN(C(=O)N1CC3(COC(=O)N3)C1)C2` [Example 99, 2-[7-(4-fluoro-2-mesyl-phenoxy)-2-azaspiro[3.5]nonane-2-carbonyl]-7-oxa-2,5-diazaspiro[3.4]octan-6-one]: the IC50 stood at 3.09 nM. The same measure for `O=C1NC2(CO1)CN(C(=O)N1CC3(CCC(Cc4ccc(C(F)(F)F)nc4)CC3)C1)C2` [Example 101, 2-[7-[[6-(trifluoromethyl)-3-pyridyl]methyl]-2-azaspiro[3.5]nonane-2-carbonyl]-7-oxa-2,5-diazaspiro[3.4]octan-6-one]: 0.18 nM; for `O=C1CCC2(CN(C(=O)N3CC4(CCC(Cc5cnc(C(F)(F)F)cn5)CC4)C3)C2)N1` [Example 102, 2-[7-[[5-(trifluoromethyl)pyrazin-2-yl]methyl]-2-azaspiro[3.5]nonane-2-carbonyl]-2,5-diazaspiro[3.4]octan-6-one]: 10.8 nM; for `O=C1NC2(CO1)CN(C(=O)N1CC3(CCC(Cc4ncc(F)cc4F)C3)C1)C2` (stereo not shown) [Example 103, 2-[6-[(3,5-difluoro-2-pyridyl)methyl]-2-azaspiro[3.4]octane-2-carbonyl]-7-oxa-2,5-diazaspiro[3.4]octan-6-one]: 0.28 nM. The same measure for `O=C1NC2(CO1)CN(C(=O)N1CC3(CCC(Cc4ccc(OC(F)F)nc4)CC3)C1)C2` [Example 105, 2-[7-[[6-(difluoromethoxy)-3-pyridyl]methyl]-2-azaspiro[3.5]nonane-2-carbonyl]-7-oxa-2,5-diazaspiro[3.4]octan-6-one]: 0.05 nM; for `O=C1NC2(CO1)CN(C(=O)N1CC3(CCC(Oc4cc(Cl)ccc4Cl)CC3)C1)C2` [Example 106, 2-[7-(2,5-dichlorophenoxy)-2-azaspiro[3.5]nonane-2-carbonyl]-7-oxa-2,5-diazaspiro[3.4]octan-6-one]: 0.05 nM; for `O=C1NC2(CO1)CN(C(=O)N1CC3(CC(c4ccc(C(F)(F)F)cc4F)C3)C1)C2` [Example 107]: 0.08 nM.

In the case of `O=C1NC2(CO1)CN(C(=O)N1CC3(CCC(Cc4ncc(F)cc4F)CC3)C1)C2` [Example 108, 2-[7-[(3,5-difluoro-2-pyridyl)methyl]-2-azaspiro[3.5]nonane-2-carbonyl]-7-oxa-2,5-diazaspiro[3.4]octan-6-one], the IC50 was 0.18 nM. The compound `CS(=O)(=O)c1ccc(CC2CCC3(C2)CN(C(=O)N2CC4(COC(=O)N4)C2)C3)cc1C(F)(F)F` (stereo not shown) [Example 109, 2-[6-[4-mesyl-3-(trifluoromethyl)benzyl]-2-azaspiro[3.4]octane-2-carbonyl]-7-oxa-2,5-diazaspiro[3.4]octan-6-one] returned a half-maximal inhibitory concentration (IC50) of 0.21 nM. Next, `O=C1NC2(CO1)CN(C(=O)N1CC3(CCC(Cc4ccc(C(F)(F)F)nc4)C3)C1)C2` (stereo not shown) [Example 110, 2-[6-[[6-(trifluoromethyl)-3-pyridyl]methyl]-2-azaspiro[3.4]octane-2-carbonyl]-7-oxa-2,5-diazaspiro[3.4]octan-6-one]: 0.24 nM. With `O=C1NC2(CO1)CN(C(=O)N1CC3(CC[C@H](Cc4cnc(C(F)(F)F)cn4)C3)C1)C2` [Example 111, 2-[(6S)-6-[[5-(trifluoromethyl)pyrazin-2-yl]methyl]-2-azaspiro[3.4]octane-2-carbonyl]-7-oxa-2,5-diazaspiro[3.4]octan-6-one], the concentration for half-maximal inhibition (IC50) came to 0.31 nM. Turning to `O=C1NC2(CO1)CN(C(=O)N1CC3(CCC(Cc4cnc(C(F)(F)F)cn4)CC3)C1)C2` [Example 112, 2-[7-[[5-(trifluoromethyl)pyrazin-2-yl]methyl]-2-azaspiro[3.5]nonane-2-carbonyl]-7-oxa-2,5-diazaspiro[3.4]octan-6-one], inhibition was half-maximal at 0.57 nM (IC50).
